How the values were obtained:
Format in all cases: biochemical
CDK-2/Cyclin A = target: T1, CDK-2/Cyclin A (Homo sapiens, UniProt P24941); assay: Inhibition of CDK-2, coupled enzyme assay; settings: 100 μM ATP, 30° C.
T1 construct: 25 nM CDK-2/Cyclin A
Experimental: Compounds are screened for their ability to inhibit CDK-2/Cyclin A using a standard coupled enzyme assay [Fox et al. Protein Sci. 1998, 7, 2249]. Reactions were carried out in 100 mM HEPES (pH 7.5), 10 mM MgCl2, 25 mM NaCl, 1 mM DTT and 1.5% DMSO. Final substrate concentrations in the assay are 100 μM ATP (Sigma chemicals) and 100 μM peptide (American Peptide, Sunnyvale, Calif.). Assays are carried out at 30° C. and 25 nM CDK-2/Cyclin A. Final concentrations of the components of the coupled enzyme system are 2.5 mM phosphoenolpyruvate, 350 μM NADH, 30 μg/ml pyruvate kinase and 10 μg/ml lactate dehydrogenase.
An assay stock buffer solution is prepared containing all of the reagents listed above, with the exception of CDK-2/Cyclin A, DTT and the test compound of interest. 56 μl of the test reaction is placed in a 384 well plate followed by addition of 1 μl of 2 mM DMSO stock containing the test compound (final compound concentration 30 μM). The plate is preincubated for ˜10 minutes at 30° C. and the reaction initiated by addition of 10 μl of enzyme (final concentration 25 nM). Rates of reaction are obtained using a BioRad Ultramark plate reader (Hercules, Calif.) over a 5 minute read time at 30° C. Ki values are determined according to standard methods.

KDR = KDR (Homo sapiens, UniProt P35968); assay: Inhibition of KDR, coupled enzyme assay; settings: 300 μM ATP, 37° C.
KDR, sequence (P35968 20-1356): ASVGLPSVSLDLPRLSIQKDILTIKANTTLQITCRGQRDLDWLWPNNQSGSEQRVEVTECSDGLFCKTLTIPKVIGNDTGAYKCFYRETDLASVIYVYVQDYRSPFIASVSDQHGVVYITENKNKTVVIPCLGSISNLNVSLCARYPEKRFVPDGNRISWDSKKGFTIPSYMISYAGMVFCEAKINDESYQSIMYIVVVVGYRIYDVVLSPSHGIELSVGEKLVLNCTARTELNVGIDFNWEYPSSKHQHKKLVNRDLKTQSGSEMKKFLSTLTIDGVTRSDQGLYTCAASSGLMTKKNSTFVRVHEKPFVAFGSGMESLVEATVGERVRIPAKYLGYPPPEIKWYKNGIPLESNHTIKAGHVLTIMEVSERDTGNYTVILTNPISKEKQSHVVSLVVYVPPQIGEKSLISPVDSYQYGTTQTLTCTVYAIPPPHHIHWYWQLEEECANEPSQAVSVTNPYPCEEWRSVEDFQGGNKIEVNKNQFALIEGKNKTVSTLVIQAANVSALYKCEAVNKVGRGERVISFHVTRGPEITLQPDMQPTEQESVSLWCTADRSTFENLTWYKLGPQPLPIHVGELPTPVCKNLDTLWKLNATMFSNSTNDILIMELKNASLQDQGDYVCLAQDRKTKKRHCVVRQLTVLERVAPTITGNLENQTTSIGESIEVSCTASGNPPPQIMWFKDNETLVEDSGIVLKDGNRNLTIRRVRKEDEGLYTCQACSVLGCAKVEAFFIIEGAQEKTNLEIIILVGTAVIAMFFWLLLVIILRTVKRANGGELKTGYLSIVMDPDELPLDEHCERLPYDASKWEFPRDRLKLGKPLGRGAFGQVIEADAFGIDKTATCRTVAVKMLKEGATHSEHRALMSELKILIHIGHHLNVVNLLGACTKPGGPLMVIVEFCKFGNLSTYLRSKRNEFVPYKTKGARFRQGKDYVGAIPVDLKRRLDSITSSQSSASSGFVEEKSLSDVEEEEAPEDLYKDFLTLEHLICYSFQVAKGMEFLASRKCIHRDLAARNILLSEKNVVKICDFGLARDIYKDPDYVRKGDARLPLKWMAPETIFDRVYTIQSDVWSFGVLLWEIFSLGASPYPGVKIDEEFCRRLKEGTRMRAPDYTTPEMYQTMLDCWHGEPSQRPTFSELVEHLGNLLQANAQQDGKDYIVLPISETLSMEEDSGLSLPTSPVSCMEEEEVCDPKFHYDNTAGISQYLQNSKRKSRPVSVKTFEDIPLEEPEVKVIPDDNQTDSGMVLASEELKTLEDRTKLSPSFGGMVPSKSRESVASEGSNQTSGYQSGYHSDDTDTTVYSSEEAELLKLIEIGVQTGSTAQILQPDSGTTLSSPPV
Experimental: Compounds were screened for their ability to inhibit KDR using a standard coupled enzyme assay (Fox et al., Protein Sci., (1998) 7, 2249). Assays were carried out in a mixture of 200 mM HEPES 7.5, 10 mM MgCl2, 25 mM NaCl, 1 mM DTT and 1.5% DMSO. Final substrate concentrations in the assay were 300 μM ATP (Sigma Chemicals) and 10 μM poly E4Y (Sigma). Assays were carried out at 37° C. and 30 nM KDR. Final concentrations of the components of the coupled enzyme system were 2.5 mM phosphoenolpyruvate, 200 μM NADH, 30 μg/ML pyruvate kinase and 10 μg/ml lactate dehydrogenase.
An assay stock buffer solution was prepared containing all of the reagents listed above, with the exception of ATP and the test compound of interest. 177 μl of the stock solution was placed in a 96 well plate followed by addition of 3 μl of 2 mM DMSO stock containing the test compound (final compound concentration 30 μM). The plate was preincubated for about 10 minutes at 37° C. and the reaction initiated by addition of 20 μl of ATP (final concentration 300 μM). Rates of reaction were obtained using a Molecular Devices plate reader (Sunnyvale, Calif.) over a 5 minute read time at 37° C.

JAK-3 = target: T2, JAK-3 (Homo sapiens, UniProt P52333); assay: JAK3 inhibition assay (ELISA, Poly (Glu, Ala, Tyr) coated plates); settings: 2 μM ATP
T2 sequence (P52333 1-1124): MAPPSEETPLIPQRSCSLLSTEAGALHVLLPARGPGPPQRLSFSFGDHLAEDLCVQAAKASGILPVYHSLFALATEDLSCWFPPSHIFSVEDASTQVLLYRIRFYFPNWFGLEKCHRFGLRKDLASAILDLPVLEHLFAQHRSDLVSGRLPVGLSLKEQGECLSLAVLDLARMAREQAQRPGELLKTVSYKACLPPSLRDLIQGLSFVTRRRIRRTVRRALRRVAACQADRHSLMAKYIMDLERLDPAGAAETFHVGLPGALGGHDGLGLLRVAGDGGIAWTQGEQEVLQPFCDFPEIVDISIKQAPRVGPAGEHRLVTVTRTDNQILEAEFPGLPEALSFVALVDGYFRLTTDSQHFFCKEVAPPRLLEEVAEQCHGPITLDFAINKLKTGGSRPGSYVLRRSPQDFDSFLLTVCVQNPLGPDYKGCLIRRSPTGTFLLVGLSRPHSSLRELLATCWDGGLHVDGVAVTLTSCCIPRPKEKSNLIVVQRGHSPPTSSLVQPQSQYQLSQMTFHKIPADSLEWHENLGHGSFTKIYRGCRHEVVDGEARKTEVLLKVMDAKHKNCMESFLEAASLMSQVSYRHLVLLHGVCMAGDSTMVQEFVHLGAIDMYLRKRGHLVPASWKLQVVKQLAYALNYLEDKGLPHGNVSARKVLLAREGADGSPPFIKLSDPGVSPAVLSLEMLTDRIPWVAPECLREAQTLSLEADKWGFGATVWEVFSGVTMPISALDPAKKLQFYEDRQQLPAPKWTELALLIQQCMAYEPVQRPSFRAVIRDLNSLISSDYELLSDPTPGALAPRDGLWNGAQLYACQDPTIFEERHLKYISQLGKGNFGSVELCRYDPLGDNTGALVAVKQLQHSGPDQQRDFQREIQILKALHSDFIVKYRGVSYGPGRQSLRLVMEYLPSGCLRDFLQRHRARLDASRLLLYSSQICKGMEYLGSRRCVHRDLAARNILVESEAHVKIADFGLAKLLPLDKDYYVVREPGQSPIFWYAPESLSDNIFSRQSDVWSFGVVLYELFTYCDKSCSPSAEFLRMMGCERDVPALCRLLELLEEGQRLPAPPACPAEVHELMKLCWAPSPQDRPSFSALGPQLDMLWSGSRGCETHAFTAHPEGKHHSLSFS
Experimental: Compound inhibition of JAK was assayed by the method described by G. R. Brown, et al, Bioorg. Med. Chem. Lett. 2000, vol. 10, pp 575-579 in the following manner. Into Maxisorb plates, previously coated at 4° C. with Poly (Glu, Ala, Tyr) 6:3:1 then washed with phosphate buffered saline 0.05% and Tween-(PBST), was added 2 μM ATP, 5 mM MgCl2, and a solution of compound in DMSO. The reaction was started with JAK enzyme and the plates incubated for 60 minutes at 30° C. The plates were then washed with PBST, 100 μL HRP-Conjugated 4G10 antibody was added, and the plate incubated for 90 minutes at 30° C. The plate was again washed with PBST, 100 μL TMB solution is added, and the plates were incubated for another 30 minutes at 30° C. Sulfuric acid (100 μL of 1M) was added to stop the reaction and the plate is read at 450 nm to obtain the optical densities for analysis to determine Ki values.

| Ki (CDK-2/Cyclin A) [nM] | Ki (KDR) [nM] | Ki (JAK-3) [nM] | Compound |
| --- | --- | --- | --- |
| < 500 | < 100 | < 10 | CC(=O)N1[C@H](C)CN(c2cc(-n3cnc(Nc4ccccc4)n3)ccn2)C[C@@H]1C [Compound I-74] |
| 500 to 1000 | < 100 | 10 to 1000 | CCOC(=O)c1ccc(Nc2ncn(-c3ccnc(N4C[C@@H](C)N(C(C)=O)[C@@H](C)C4)c3)n2)cc1 [Compound I-75] |
| > 1000 | 100 to 1000 | 10 to 1000 | CCOC(=O)c1ccc(Nc2ncn(-c3ccnc(N4CCCN(C(C)=O)CC4)c3)n2)cc1 [Compound I-76] |
| > 1000 | 100 to 1000 | 10 to 1000 | CC(=O)N1[C@H](C)CN(c2cc(-n3cnc(Nc4ccc(NC(=O)N(C)C)cc4)n3)ccn2)C[C@@H]1C [Compound I-77, 3-(4-{1-[2-(4-Acetyl-3,5-dimethyl-piperazin-1-yl)-pyridin-4-yl]-1H-[1,2,4]triazol-3-ylamino}-phenyl)-1,1-dimethyl-urea] |
| < 500 | < 100 | 10 to 1000 | COC(=O)Nc1ccc(Nc2ncn(-c3ccnc(N4C[C@@H](C)N(C(C)=O)[C@@H](C)C4)c3)n2)cc1 [Compound I-78] |
| < 500 | < 100 | < 10 | CC(=O)N1[C@H](C)CN(c2cc(-n3cnc(Nc4ccc(NC(=O)C(F)(F)F)cc4)n3)ccn2)C[C@@H]1C [Compound I-79] |
| < 500 | 100 to 1000 | 10 to 1000 | CC(=O)N1[C@H](C)CN(c2cc(-n3cnc(Nc4ccc(NC(=O)c5cccs5)cc4)n3)ccn2)C[C@@H]1C [Compound I-80] |
| 500 to 1000 | < 100 | 10 to 1000 | CC(=O)N1[C@H](C)CN(c2cc(-n3cnc(Nc4ccc(NC(=O)c5ccco5)cc4)n3)ccn2)C[C@@H]1C [Compound I-81, Furan-2-carboxylic acid (4-{1-[2-(4-acetyl-3,5-dimethyl-piperazin-1-yl)-pyridin-4-yl]-1H-[1,2,4]triazol-3-ylamino}-phenyl)-amide] |
| < 500 | < 100 | < 10 | CC(=O)N1[C@H](C)CN(c2cc(-n3cnc(Nc4ccc(N)cc4)n3)ccn2)C[C@@H]1C [Compound I-82] |
| < 500 | 100 to 1000 | 10 to 1000 | CC(=O)N1[C@H](C)CN(c2cc(-n3cnc(Nc4ccc(N5CCOCC5)cc4)n3)ccn2)C[C@@H]1C [Compound I-85, 1-(2,6-Dimethyl-4-{4-[3-(4-morpholin-4-yl-phenylamino)-[1,2,4]triazol-1-yl]-pyridin-2-yl}-piperazin-1-yl)-ethanone] |
| < 500 | 100 to 1000 | 10 to 1000 | CCCOC(=O)Nc1ccc(Nc2ncn(-c3ccnc(N4C[C@@H](C)N(C(C)=O)[C@@H](C)C4)c3)n2)cc1 [Compound I-88] |

Second part, the compound before the results:

| Compound | Ki (CDK-2/Cyclin A) [nM] | Ki (KDR) [nM] | Ki (JAK-3) [nM] |
| --- | --- | --- | --- |
| CC(=O)N1CCCN(c2cc(-n3cnc(Nc4ccccc4)n3)ccn2)CC1 [Compound I-66] | 500 to 1000 | 100 to 1000 | 10 to 1000 |
| CCC(=O)N1CCCN(c2cc(-n3cnc(Nc4ccccc4)n3)ccn2)CC1 [Compound I-67] | > 1000 | 100 to 1000 | 10 to 1000 |
| CCCC(=O)N1CCCN(c2cc(-n3cnc(Nc4ccccc4)n3)ccn2)CC1 [Compound I-68] | > 1000 | > 1000 | 10 to 1000 |
| CC(C)C(=O)N1CCCN(c2cc(-n3cnc(Nc4ccccc4)n3)ccn2)CC1 [Compound I-69] | > 1000 | > 1000 | > 1000 |
| CC(C)CC(=O)N1CCCN(c2cc(-n3cnc(Nc4ccccc4)n3)ccn2)CC1 [Compound I-70] | > 1000 | > 1000 | > 1000 |
| COCC(=O)N1CCCN(c2cc(-n3cnc(Nc4ccccc4)n3)ccn2)CC1 [Compound I-71] | > 1000 | 100 to 1000 | 10 to 1000 |
| N#CCC(=O)N1CCCN(c2cc(-n3cnc(Nc4ccccc4)n3)ccn2)CC1 [Compound I-72] | < 500 | 100 to 1000 | 10 to 1000 |
| c1ccc(Nc2ncn(-c3ccnc(N4CCCCCC4)c3)n2)cc1 [Compound I-73] | < 500 | < 100 | < 10 |

Source: patent US7598245B2 (Vertex Pharmaceuticals Incorporated, priority 2003, dated 2009)
